Measured values taken from US11091494B2, “Crystal form of acalabrutinib and preparation method and use thereof” (Crystal Pharmaceutical (Suzhou) Co., Ltd., priority 2018, dated 2021).

Legend:
Type in all cases: physicochemical
[1] = Flowability (compressibility index / Carr index); conditions: for Flowability: by compressibility index; for Compressibility index: c=(ρf−ρ0)/ρf
Method: (§1) Compressibility index or Carr index is usually utilized to evaluate the flowability of powder and granules during the drug product process. Compressibility index test method is as follows: a certain amount of powder was added into a measuring cylinder and bulk volume was recorded. Then the powder was tapped to make it in the tightest state and the tapped volume was recorded. The bulk density (ρ0) and tapped density (ρf) were calculated. Compressibility index was calculated according to c=(ρf−ρ0)/ρf.
as §1, with “(ρ0),” for “(ρ0) and”, “calculated and compressibility” for “calculated. Compressibility”, “c=(pf-po)/pf.” for “c=(ρf−ρ0)/ρf.”
as §1, with “(ρ0),” for “(ρ0) and”, “calculated and compressibility” for “calculated. Compressibility”

[2] = Adhesiveness (amount of material sticking to the punch); conditions: about 30 mg, φ8 mm round tooling, 10 kN, compression repeated twice
Method: (§2) Approximately 30 mg of Form A and Form I in WO2017002095A1 were weighed, added into the dies of a φ8 mm round tooling, compressed at 10 kN and held for about 30 s. The amount of material sticking to the punch was weighed. The compression was repeated twice and the cumulative amount and average amount of material sticking to the punch during the compression were recorded.
as §2, with “Form F” for “Form A”
as §2, with “Form G” for “Form A”

[3] = Stability of crystalline form on storage, checked by XRPD; conditions: for Solid form: XRPD; for Chemical purity on storage: at least 2 months
Method: Approximately 10 mg of Form A of the present disclosure was weighed and stored at different conditions of 25° C./60% RH in open dish, 25° C./60% RH in closed dish, 40° C./75% RH in open dish, and 40° C./75% RH in closed dish. Crystalline forms were checked by XRPD.
Approximately 10 mg of Form D of the present disclosure was weighed and stored at different conditions of 25° C./60% RH in closed dish, 25° C./60% RH in open dish, 40° C./75% RH in closed dish. Crystalline form was checked by XRPD.
Approximately 10 mg of Form F of the present disclosure was weighed and stored at different conditions of 25° C./60% RH in closed dish, 25° C./60% RH in open dish, and 40° C./75% RH in closed dish, 40° C./75% RH in open dish. Crystalline forms were checked by XRPD.
Approximately 10 mg of Form G of the present disclosure was weighed and stored at 25° C./60% RH in closed dish. Crystalline forms were checked by XRPD.
Approximately 10 mg of Form CS15 of the present disclosure was weighed and stored at different conditions of 25° C./60% RH in open dish, 25° C./60% RH in closed dish. Crystalline forms were checked by XRPD.

[4] = Compressibility (tensile strength of compressed tablet); conditions: about 80 mg, φ6 mm round tooling, compressed at 10 kN
Method: (§3) Approximately 80 mg of Form A and Form I in WO2017002095A1 were weighed into the dies of a φ6 mm round tooling, compressed at 10 kN manually, then stored in a desiccator for 24 hours until complete elastic recovery. Radial crushing force (hardness, H) was tested with an intelligent tablet hardness tester. Diameter (D) and thickness (L) were tested with a caliper. Tensile strength of the powder that with different hardness was calculated with the following formula: T=2H/πDL. Under a certain force, the greater the tensile strength, the better the compressibility.
as §3, with “Form D” for “Form A”, “manually, and” for “manually,”, “powder” for “powder that”
as §3, with “of Form F and Form” for “of Form A and Form”, “kN manually, and then stored” for “kN manually, then stored”, “tested with caliper. Tensile” for “tested with a caliper. Tensile”, “the powder with different” for “the powder that with different”
Approximately 80 mg of Form G and Form I of WO2017002095A1 were weighed into the dies of a φ6 mm round tooling, compressed at 10 kN manually, and then stored in a desiccator for 24 hours until complete elastic recovery. Radial crushing force (hardness, H)) was tested with an intelligent tablet hardness tester. Diameter (D) and thickness (L) were tested with caliper. Tensile strength of the powder with different hardness was calculated with the following formula: T=2H/πDL. Under a certain force, the greater the tensile strength, the better the compressibility.
as §3, with “of Form CS15 and Form” for “of Form A and Form”, “kN manually, and then stored” for “kN manually, then stored”, “tested with caliper. Tensile” for “tested with a caliper. Tensile”, “the powder with different” for “the powder that with different”

[5] = 25° C./60% RH in closed dish, 2 months
[6] = 25° C./60% RH in open and closed dishes
[7] = 25° C./60% RH in open dish, 2 months
[8] = 40° C./75% RH in closed dish, 2 months
[9] = 40° C./75% RH in open dish, 2 months

| Bulk density (ρ0) [1] | Tapped density (ρf) [1] | Flowability [1] | Compressibility index [1] | Average amount (material sticking to the punch) [2] | Cumulative amount (material sticking to the punch) [2] | Time kept stable (crystalline state doesn't change) ([3]; 25° C./60% RH in closed dish) | Solid form [3, 5] | Chemical purity on storage [3, 6] | Time kept stable (crystalline state doesn't change) ([3]; 25° C./60% RH in open dish) | Solid form [3, 7] | Time kept stable (crystalline state doesn't change) ([3]; 40° C./75% RH in closed dish) | Solid form [3, 8] | Time kept stable (crystalline state doesn't change) ([3]; 40° C./75% RH in open dish) | Solid form [3, 9] | Solid form ([3]; Initial) | Tensile strength [4] | Chemical purity on storage ([3]; 25° C./60% RH in closed dish) | SMILES |
| --- | --- | --- | --- | --- | --- | --- | --- | --- | --- | --- | --- | --- | --- | --- | --- | --- | --- | --- |
| 0.269 g/mL | 0.303 g/mL | Good (11-15) | 11% | 40 µg | 80 µg | at least 2 months | Form A | remains substantially unchanged | at least 2 months | Form A | at least 2 months | Form A | at least 2 months | Form A | Form A | 1.35 MPa | – | CC#CC(=O)N1CCC[C@H]1c1nc(-c2ccc(C(=O)Nc3ccccn3)cc2)c2c(N)nccn12 [Form A, (S)-4-(8-amino-3-(1-(but-2-ynoyl)pyrrolidin-2-yl)imidazo[1,5-a]pyrazin-1-yl)-N-(pyridin-2-yl)benzamide] |
| – | – | – | – | – | – | at least 2 months | Form CS15 | remains substantially unchanged | at least 2 months | Form CS15 | – | – | – | – | Form CS15 | 1.18 MPa | – | CC#CC(=O)N1CCC[C@H]1c1nc(-c2ccc(C(=O)Nc3ccccn3)cc2)c2c(N)nccn12 [Form CS15, (S)-4-(8-amino-3-(1-(but-2-ynoyl)pyrrolidin-2-yl)imidazo[1,5-a]pyrazin-1-yl)-N-(pyridin-2-yl)benzamide] |
| 0.185 g/mL | 0.216 g/mL | Good (11-15) | 14% | 30 µg | 60 µg | at least 2 months | Form F | remains substantially unchanged | at least 2 months | Form F | at least 2 months | Form F | at least 2 months | Form F | – | 1.02 MPa | – | CC#CC(=O)N1CCC[C@H]1c1nc(-c2ccc(C(=O)Nc3ccccn3)cc2)c2c(N)nccn12 [Form F, (S)-4-(8-amino-3-(1-(but-2-ynoyl)pyrrolidin-2-yl)imidazo[1,5-a]pyrazin-1-yl)-N-(pyridin-2-yl)benzamide] |
| 0.443 g/mL | 0.488 g/mL | Good (11-15) | 11% | 30 µg | 60 µg | at least 2 months | Form G | – | – | – | – | – | – | – | Form G | 1.62 MPa | remains substantially unchanged | CC#CC(=O)N1CCC[C@H]1c1nc(-c2ccc(C(=O)Nc3ccccn3)cc2)c2c(N)nccn12 [Form G, (S)-4-(8-amino-3-(1-(but-2-ynoyl)pyrrolidin-2-yl)imidazo[1,5-a]pyrazin-1-yl)-N-(pyridin-2-yl)benzamide] |
